Like-named read-outs stand apart in the source and are kept apart here. Numbered stars: 1 amine (or outer) side, 2 acyl side, 3 side chain; on linkers, the order of the positions; unused ones are H or OH. Bridge positions count the residues as written; N and C are the ends. Square brackets hold non-standard residues; d marks the D form. Peptide text beside a SMILES is read from it. Phe(4-(4-pyridyl)) = N[C@@H](Cc1ccc(-c2ccncc2)cc1)C(=O)O; Phe(4-NH2) = Nc1ccc(C[C@H](N)C(=O)O)cc1; d(hPhe) = N[C@H](CCc1ccccc1)C(=O)O; Suc = O=C(CCC(=O)[*:2])[*:1]
Experiments:
[1] = tested on: TNF-α (degradation of IkB in HeLa cells or A431 cells); experiment: Human cell-based assay: inhibition of TNF-α induced degradation of IkB; conditions: for inhibition at 5 µM: read-out: Inhibition at Various Compound Concentrations, 5 μM; for inhibition at 10 µM: read-out: Inhibition at Various Compound Concentrations, 10 μM
[2] = molecular target: T1, TNFα / TNFα receptor (TNFα R1/Fc) (Homo sapiens, UniProt P01375); experiment: Inhibition of binding of TNFα to the TNFα receptor (plate ELISA competition); conditions: Table 2
T1 construct: purchased R&D Systems
T1 sequence (P01375 77-233 limits assumed, species assumed): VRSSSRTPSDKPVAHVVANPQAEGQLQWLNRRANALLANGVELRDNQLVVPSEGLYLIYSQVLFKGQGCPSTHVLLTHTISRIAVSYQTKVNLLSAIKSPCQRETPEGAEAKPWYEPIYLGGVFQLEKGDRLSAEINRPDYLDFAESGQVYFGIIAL
Method in brief: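 Compound dilutions were preincubated 30 min at RT with 8.33 nM TNFα R1/Fc in PBST with 2% DMSO, then added to wells coated with 15 nM TNFα for 30 min. Bound receptor was detected with HRP anti-human Fc and TMB, read as A450.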

[3] = tested on: rat paw edema model; experiment: Rat paw edema model (carrageenan), anti-inflammatory activity; type: in vivo, Sprague-Dawley (SD) rats
Description: Compounds 3, 4, 10 and 202 were tested in a rat paw edema model to determine anti-inflammatory activity. Seven groups (one for Vehicle A [15 mL PEG400, 3 mL Graves Grain alcohol (190 proof), 1.8 mL dimethylacetamide and 10.2 mL deionized water] alone as a negative control, one for Vehicle B [0.1M NaHCO3] alone as a negative control, one for each of the four test compounds dissolved in Vehicle A, and one for indomethacin dissolved in Vehicle B as a positive control), each group containing six Sprague-Dawley (SD) rats (180-200 g) randomized by weight. Initial paw volumes were measured by placing the right hind limb of the rat up to the top of the hock in a beaker of water sitting on a scale that had been tared to zero and recording the readout.
Rats were pre-treated with either i) one of the test compounds, or ii) a positive or negative control. Vehicle A alone and test compound dissolved in Vehicle A (Compound 3-1.0 mg/kg; Compound 4-0.4 mg/kg; Compound 10-0.5 mg/kg; Compound 202-0.3 mg/kg) were administered by intravenous injection. Vehicle B alone and indomethacin (5 mg/kg in 0.1M NaHCO3) was administered by intraperitoneal injection. Thirty minutes after this pretreatment, rats were anesthetized and injected with 0.1 mL of carrageenan (10 mg/mL in water) in the subplantar region of the right hind foot using a ½ inch 26 gauge needle attached to a 1 cc syringe.
At 2, 4 and 6 hours post-carrageenan injection, the right hind foot of each rat was measured for paw volume as described above.
We next investigated the effect of varying intravenous doses of Compound 202 (0.05, 0.10, 0.30, and 1.00 mg/kg) in the same model using the same protocol (6 rats per group). […] We also investigated the affect of oral dosing (10 mg/kg) of Compound 202 in the same model. For oral dosing, a 2.5 mg/mL suspension of Compound 202 was prepared in Vehicle A. Rats were orally administered 4 mL/kg of that suspension.

[4] = tested on: rat paw edema model; experiment: as above; type: in vivo, Sprague-Dawley (SD) rats; conditions: Table 8; 3 mg/kg PO; 4 h post-carrageenan
[5] = Activity (IC50, inhibition of TNFα binding to TNFα R1/Fc)
[6] = 5 μM compound, HeLa or A431 cells
[7] = 10 μM compound, HeLa or A431 cells
[8] = read-out: Activity (IC50, inhibition of TNFα binding to TNFα R1/Fc)
[9] = Table 8, 1 mg/kg IV, 2 h post-carrageenan
[10] = Table 8, 1 mg/kg IV, 4 h post-carrageenan
[11] = Table 8, 1 mg/kg IV, 6 h post-carrageenan
[12] = Table 5, 1 mg/kg IV, 2 h post-carrageenan
[13] = Table 5, 1 mg/kg IV, 4 h post-carrageenan
[14] = Table 5, 1 mg/kg IV, 6 h post-carrageenan

Row | Structure (SMILES) | inhibition at 5 µM [1] [%] | inhibition at 10 µM [1] [%] | IC50 [2, 5] [µM] | inhibition at 5 µM [1, 6] [%] | inhibition at 10 µM [1, 7] [%] | IC50 [2, 8] [µM] | Change in Paw Volume [3, 9] [mL] | Change in Paw Volume [3, 10] [mL] | Change in Paw Volume [3, 11] [mL] | Change in Paw Volume [3, 12] [mL] | Change in Paw Volume [3, 13] [mL] | Change in Paw Volume [3, 14] [mL] | also measured
1 | O=C1COc2ccc(cc2)C[C@@H](C(=O)N[C@@H](CCc2ccccc2)C(=O)O)NC(=O)[C@H](Cc2ccccc2)NC(=O)[C@@H](Cc2ccc(-c3ccccc3)cc2)NC(=O)[C@H](Cc2cccs2)N1 [Compound 393] | 10 to 50 | > 80 | < 10 |  |  |  |  |  |  |  |  |  | Change in Paw Volume ([3]; Table 4, 1 mg/kg IV, 2 h post-carrageenan): 1.24 ± 0.18 mL; Change in Paw Volume ([3]; Table 4, 1 mg/kg IV, 4 h post-carrageenan): 1.54 ± 0.25 mL; Change in Paw Volume ([3]; Table 4, 1 mg/kg IV, 6 h post-carrageenan): 1.56 ± 0.17 mL; Change in Paw Volume ([3]; Table 6, 1 mg/kg IV, 2 h post-carrageenan): 1.27 ± 0.07 mL; Change in Paw Volume ([3]; Table 6, 1 mg/kg IV, 4 h post-carrageenan): 1.28 ± 0.08 mL; Change in Paw Volume ([3]; Table 6, 1 mg/kg IV, 6 h post-carrageenan): 1.42 ± 0.12 mL
2 | O=C1CCC(=O)N[C@H](CCc2ccccc2)C(=O)N[C@@H](Cc2ccc(-c3ccncc3)cc2)C(=O)N[C@H](Cc2ccccc2)C(=O)N[C@H](C(=O)O)Cc2ccc(cc2)N1 [Compound 419] ([d(hPhe)][Phe(4-(4-pyridyl))][dF][Phe(4-NH2)]-OH; linker N-4 via Suc) |  |  |  | < 10 | < 10 | 10 to 30 | 1.22 ± 0.21 | 1.32 ± 0.18 | 1.16 ± 0.16 |  |  |  | 
3 | O=C1CCC(=O)N[C@H](CCc2ccccc2)C(=O)N[C@@H](Cc2ccc(-c3ccncc3)cc2)C(=O)N[C@H](Cc2ccccc2)C(=O)N[C@H](C(=O)N[C@@H](Cc2ccccc2)C(=O)O)Cc2ccc(cc2)N1 [Compound 426] ([d(hPhe)][Phe(4-(4-pyridyl))][dF][Phe(4-NH2)]F-OH; linker N-4 via Suc) |  |  |  | 10 to 50 | 10 to 50 | < 10 |  |  |  | 0.90 ± 0.15 | 1.11 ± 0.18 | 1.11 ± 0.23 | 
4 | O=C1COc2ccc(cc2)C[C@@H](C(=O)O)NC(=O)[C@H](Cc2ccc(O)cc2)NC(=O)[C@H](Cc2ccc(-c3ccccc3)cc2)NC(=O)[C@H](Cc2cccs2)N1 [Compound 428] | < 10 | < 10 |  |  |  | < 10 | 1.27 ± 0.15 | 1.43 ± 0.22 | 1.39 ± 0.22 |  |  |  | 
5 | O=C(O)[C@H](Cc1ccccc1)NC(=O)[C@@H]1Cc2ccc(cc2)NC(=O)[C@H](O)[C@@H](O)C(=O)N[C@H](Cc2cccs2)C(=O)N[C@@H](Cc2ccc(-c3ccncc3)cc2)C(=O)N[C@H](Cc2ccccc2)C(=O)N1 [Compound 442] |  |  |  | 10 to 50 | 10 to 50 | < 10 |  |  |  | 0.86 ± 0.15 | 1.08 ± 0.16 | 1.01 ± 0.14 | 
6 | O=C1COc2ccc(cc2)C[C@@H](C(=O)NCS(=O)(=O)O)NC(=O)[C@H](CCc2ccccc2)NC(=O)[C@@H](Cc2ccc(-c3ccccc3)cc2)NC(=O)[C@H](Cc2cccs2)N1 [Compound 482] | 10 to 50 | 10 to 50 | < 10 |  |  |  |  |  |  | 0.73 ± 0.19 | 0.99 ± 0.34 | 0.86 ± 0.27 | Change in Paw Volume [4]: 1.18 ± 0.10 mL; Change in Paw Volume ([3]; Table 8, 3 mg/kg PO, 2 h post-carrageenan): 1.13 ± 0.15 mL; Change in Paw Volume ([3]; Table 8, 3 mg/kg PO, 6 h post-carrageenan): 1.14 ± 0.10 mL
